Data: patent publication US20060030569A1, “Diarylmethyl piperazine derivatives, preparations thereof and uses thereof” (AstraZeneca AB, priority 2004, published 2006)
pEC50, pIC50: −log10 of the molar value. Read-outs that look alike come from different tables or passages of the source.

Legend:
cloned human μ receptors = biological target: T1, cloned human μ receptors (Homo sapiens, UniProt P35372); assay: Binding assay, displacement of 125I-FK33824 (IC50hm)
T1 construct: expressed in transfected cells; host or cells: human 293S (HEK 293S) cells

cloned human δ receptors = biological target: T2, cloned human δ receptors (Homo sapiens, UniProt P41143); assay: Binding assay, displacement of 125I-Deltorphin II (IC50hd)
T2 construct: expressed in transfected cells

cloned human κ receptors = biological target: T3, cloned human κ receptors (Homo sapiens, UniProt P41145); assay: Binding assay, displacement of 125I-DPDYN (IC50hk)
T3 construct: expressed in transfected cells; host or cells: human 293S (HEK 293S) cells

human δ receptors = biological target: T4, human δ receptors (Homo sapiens, UniProt P41143); assay: Human δ receptor functional assay, GTP[γ]35S binding; type: biochemical; settings: for Emax: in relation to SNC80
T4 construct: expressed in transfected cells
Procedure: (§1) The agonist activity of the compounds is measured by determining the degree to which the compounds receptor complex activates the binding of GTP to G-proteins to which the receptors are coupled. In the GTP binding assay, GTP[γ]^35S is combined with test compounds and membranes from BEK-293S cells expressing the cloned human opioid receptors or from homogenised rat or mouse brain. Agonists stimulate GTP[γ]^35S binding in these membranes. The EC50 and Emax values of compounds are determined from dose-response curves. Right shifts of the dose response curve by the delta antagonist naltrindole are performed to verify that agonist activity is mediated through delta receptors. For human δ receptor functional assays, EC50 (low) is measured when the human δ receptors used in the assay were expressed at lower levels in comparison with those used in determining EC50 (high). The Emax values were determined in relation to the standard δ agonist SNC80, i.e., higher than 100% is a compound that has better efficacy than SNC80.
(§2) Rat brain membranes are thawed at 37° C., passed 3 times through a 25-gauge blunt-end needle and diluted in the GTPγS binding (50 mM Hepes, 20 mM NaOH, 100 mM NaCl, 1 mM EDTA, 5 mM MgCl2, pH 7.4, Add fresh: 1 mM DTT, 0.1% BSA). 120 μM GDP final is added membranes dilutions. […] The basal and maximal stimulated binding are determined in absence and presence of 3 μM SNC80. The assay performed on HEK 293S cells stably expressing cloned Delta receptors is done in a slightly different buffer (50 mM Hepes, 20 mM NaOH, 200 mM NaCl, 1 mM EDTA, 5 mM MgCl2, pH 7.4, Add fresh: 0.5% BSA, no DTT) and with a 3 μM final conc. of GDP.

[1] = biological target: T5, δ receptors in rat brain membranes (Rattus norvegicus, UniProt P33533); assay: Rat brain functional assay, GTPγ35S binding; type: biochemical; settings: for Emax: in relation to SNC80, read-out: EC50rb Emax
T5 construct: membranes from BEK-293S cells expressing the cloned human opioid receptors or from homogenised rat or mouse brain; from tissue; host or cells: rat brain
Procedure: Rat brains are weighed and rinsed in ice-cold PBS (containing 2.5 mM EDTA, pH 7.4). The brains are homogenized with a polytron for 30 sec (rat) in ice-cold lysis buffer (50 mM Tris, pH 7.0, 2.5 mM EDTA, with phenylmethylsulfonyl fluoride added just prior use to […] from a 0.5 M stock in DMSO:ethanol).
as §1, with “(high).” for “(high). The Emax values were determined in relation to the standard δ agonist SNC80, i.e., higher than 100% is a compound that has better efficacy than SNC80.”
as §2

[2] = EC50h (low), human δ receptors expressed at lower levels
[3] = human δ receptors expressed at lower levels, read-out: EC50h (low) Emax
[4] = human δ receptor, 293S cell membranes, read-out: IC50hd
[5] = human δ receptors expressed at higher levels, read-out: EC50h (high) Emax
[6] = human δ receptors expressed at higher levels, read-out: EC50h (high)

T4 sequence (P41143 whole entry): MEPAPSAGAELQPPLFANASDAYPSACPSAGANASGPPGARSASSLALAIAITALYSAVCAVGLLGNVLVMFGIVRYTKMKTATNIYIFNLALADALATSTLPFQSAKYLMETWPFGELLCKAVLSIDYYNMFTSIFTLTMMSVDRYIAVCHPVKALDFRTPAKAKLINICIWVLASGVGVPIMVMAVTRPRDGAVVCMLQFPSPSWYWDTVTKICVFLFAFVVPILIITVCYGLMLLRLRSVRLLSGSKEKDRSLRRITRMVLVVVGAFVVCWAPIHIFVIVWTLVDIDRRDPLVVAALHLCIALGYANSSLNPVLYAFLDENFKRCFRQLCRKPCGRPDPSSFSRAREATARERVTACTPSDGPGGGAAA
T2 sequence (P41143 whole entry): as above
T5 sequence (P33533 whole entry): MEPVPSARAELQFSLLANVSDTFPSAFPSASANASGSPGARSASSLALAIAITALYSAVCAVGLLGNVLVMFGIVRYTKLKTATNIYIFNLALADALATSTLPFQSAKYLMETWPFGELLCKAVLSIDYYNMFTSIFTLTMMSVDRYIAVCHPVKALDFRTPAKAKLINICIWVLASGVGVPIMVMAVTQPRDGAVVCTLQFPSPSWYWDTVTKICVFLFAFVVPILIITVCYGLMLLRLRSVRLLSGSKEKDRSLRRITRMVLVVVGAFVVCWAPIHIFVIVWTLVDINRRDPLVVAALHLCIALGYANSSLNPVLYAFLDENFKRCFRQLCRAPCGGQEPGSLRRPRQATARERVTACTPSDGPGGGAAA
T3 sequence (P41145 whole entry): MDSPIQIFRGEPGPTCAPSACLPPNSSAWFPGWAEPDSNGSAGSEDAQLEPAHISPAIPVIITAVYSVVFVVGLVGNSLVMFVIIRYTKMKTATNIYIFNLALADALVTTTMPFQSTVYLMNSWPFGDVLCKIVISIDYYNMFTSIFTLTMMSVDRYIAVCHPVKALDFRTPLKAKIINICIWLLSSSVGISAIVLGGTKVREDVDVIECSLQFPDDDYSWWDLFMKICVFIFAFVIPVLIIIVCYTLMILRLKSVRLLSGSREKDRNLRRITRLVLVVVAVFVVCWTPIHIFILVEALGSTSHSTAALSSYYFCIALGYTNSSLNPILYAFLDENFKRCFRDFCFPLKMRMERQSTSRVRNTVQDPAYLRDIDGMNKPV
T1 sequence (P35372 whole entry): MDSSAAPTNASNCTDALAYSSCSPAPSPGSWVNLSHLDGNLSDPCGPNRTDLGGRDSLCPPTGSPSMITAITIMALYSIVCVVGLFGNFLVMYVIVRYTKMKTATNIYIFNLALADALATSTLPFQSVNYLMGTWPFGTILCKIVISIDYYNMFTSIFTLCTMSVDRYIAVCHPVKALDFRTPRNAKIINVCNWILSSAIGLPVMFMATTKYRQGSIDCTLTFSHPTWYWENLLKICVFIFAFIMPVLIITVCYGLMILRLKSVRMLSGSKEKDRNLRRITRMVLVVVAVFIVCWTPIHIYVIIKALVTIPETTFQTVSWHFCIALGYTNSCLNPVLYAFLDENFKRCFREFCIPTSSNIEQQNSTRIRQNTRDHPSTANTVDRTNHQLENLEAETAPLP

SMILES | pIC50 (cloned human μ receptors) | pIC50 (cloned human δ receptors) | pIC50 (cloned human κ receptors) | pEC50 (human δ receptors; [2]) | Emax (human δ receptors; [3]) | pIC50 (cloned human δ receptors; [4]) | Emax (human δ receptors; [5]) | pEC50 (human δ receptors; [6]) | pEC50 (human δ receptors; human δ receptors expressed at lower levels, read-out: EC50h (low)) | pEC50 [1] | Emax [1]
CCN(CC)C(=O)c1ccc([C@H](c2cccc(N)c2)N2CCN(Cc3cccc(F)c3)CC2)cc1 | 5.56 | 8.97 | 5.24 | 7.11 | 84.4% |  |  |  |  |  | 
CCN(CC)C(=O)c1ccc([C@H](c2cccc(N)c2)N2CCN(Cc3ccccc3F)CC2)cc1 | 5.65 | 9.14 | 5.14 | 7.32 | 90% |  |  |  |  |  | 
CCN(CC)C(=O)c1ccc([C@H](c2cccc(N)c2)N2CCN(Cc3ccc(F)cc3)CC2)cc1 | 6.15 |  | 5.26 |  | 95.3% | 9.23 | 104% | 8.38 | 7.69 | 7.64 | 130%
CCN(CC)C(=O)c1ccc([C@@H](c2cccc(N)c2)N2CCN(Cc3ccc(F)cc3)CC2)cc1 | 5.48 |  | < 5.00 |  |  | 8.06 | 89.1% | 7.00 |  | 6.33 | 66.3%
